16 compounds from patent publication US7605168B2 (Plexxikon, Inc., priority 2004, dated 2009) can be followed below.

In test [1] the target is T1, PDE4B: catalytic domain of human PDE4B from S152-S528 (Homo sapiens, UniProt Q07343).
T1 construct: The catalytic domain of human PDE4B from S152-S528; His6 (N, cleaved yes); thrombin cleavage site (N, cleaved yes); made in house; host or cells: E. coli BL21 (DE3) RIL
The test is described as follows: PDE4 IC50 determination by Scintillation Proximity Assay (SPA), PDE4B catalytic domain. The class given is biochemical. As to conditions: [3H]cAMP SPA, 30 min at 30° C. The procedure:
(§1) IC50s were determined by Scintillation Proximity Assay (SPA). The principle of the assay is based on the fact that cAMP, the PDE4 substrate, binds weakly to Yittrium Silicate SPA beads, whereas AMP, the product of PDE4 hydrolysis binds strongly. Thus, the extent of PDE4 hydrolysis of a sample of [^3H]cAMP can be measured because only the [^3H]AMP produced by PDE4 hydrolysis will bind to the SPA beads and produce a scintillation signal.
Enzyme was stored in 50% glycerol at −20°.
(§2) In addition to the compound dilutions, each assay plate contained control wells with 1 μl of DMSO (to define 0% enzyme inhibition) or 1 μl of 200 μM roflumilast (to define 100% enzyme inhibition). Using a Beckman FX robot, 10 μl of [^3H] cAMP (Amersham TRK559) at […] in assay buffer (50 mM Tris, pH 7.5; 8.3 mM MgCl; 1.7 mM EGTA; 0.01% BSA) was transferred to each assay well. Next, 10 μl of PDE4 enzyme in assay buffer was added and the plates were shaken for 30 s. at 1000 rpm to start the cAMP hydrolysis reaction. The concentrations of enzyme used were: PDE4B, 80 ng/ml; PDE4D, 4 ng/ml; PDE4B2, 2.5 μl of 50% glycerol stock/ml; PDE4D5 0.083 μl of 50% glycerol stock/ml. Assay plates were covered and incubated for 30 min. at 30° C. Reactions were stopped by robotic addition of 10 μl of 5 mg/ml SPA beads (Amersham RPNQ0013) in 18 mM ZnSO4. The assay plates were covered with clear plastic film, centrifuged for 1 min. at 1000 RPM to settle the SPA beads, and counted using a Wallac TriLux scintillation counter. IC50's were calculated from the raw assay data by non-linear regression curve fitting using the Assay Explorer software package from MDL.

Test [2] deals with TNF-α release from whole blood cultures stimulated with LPS. The test is described as follows: IC50 by TNF alpha production upon stimulation of whole blood cultures with LPS. The class given is cell-based. Particulars: human whole blood (buffy coat) culture, 100 ng/ml LPS, 4 hours; read-out: h TNFα IC50. The procedure: Compounds were assayed to generate IC50 numbers based on the inhibition of TNF-α release from whole blood cultures, using the following assay protocol (see Table 5 for compounds tested and results). Inhibition of PDE4B results in the inhibition of TNF-α release by whole blood cultures stimulated with lipopolysaccharide (LPS). The measurement of TNF-α release was used to assess compounds as PDE4B inhibitors.
Compounds were provided in DMSO at 20 mM and 2 μl per well was added to one row of a dilution plate. Added 98 μl of RPMI 1640 media with 2.5% heat inactivated FBS to each well containing compound. The same media with 2% DMSO was prepared and 60 μl was added to each of the empty wells in the dilution plate. The compound was serially diluted 1:3 (30 μl to 60 μl of media) for a total of 8 concentrations per compound. Wells were also prepared with 50 μM roflumilast and piclamilast as 100% inhibition controls, and 2% DMSO in media was used as 0% inhibition control. A 20 μl aliquot of each sample was transferred to an assay plate in duplicate.
Human buffy coat was obtained from the Stanford Medical School Blood Center and diluted with 7 volumes of RPMI 1640 media with 1% penicillin/streptomycin and 2.5% heat inactivated FBS. A 160 μl aliquot of the diluted blood was added to each well of the assay plates, mixed and incubated for 1 hour at 37° C. in 5% CO2. LPS (Sigma catalog number L2637) that had been diluted to 1 mg/ml in PBS and stored as 20 μl aliquots at −20° C. was thawed and diluted 1000× to 1 μg/ml. A 20 μl aliquot of this was added to each sample (final concentration 100 ng/ml LPS) after the 1 hour incubation. A background sample was prepared without addition of LPS as well. The samples were mixed on a shaker for one minute at 900 RPM and incubated for 4 hours at 37° C. in 5% CO2. The plates were then put on a shaker for one minute at 900 RPM, followed by centrifuging at 100×g for 10 minutes, deceleration setting of 5. The top 75 μl of supernatant was carefully pipetted to a new plate and frozen at −20° C.
A 50 μl aliquot of incubation buffer (Biosource International Immunoassay Kit:Human TNF-α catalog number KHC3011) was added to each well of a plate coated with monoclonal antibody specific for hTNF-α (Biosource kit). The supernatant blood samples were thawed and a 50 μl aliquot along with 50 μl of diluent buffer (Biosource kit) were added to incubation buffer and the samples were incubated for 2 hours at room temperature. The samples were washed 4 times with 300 μl/well wash buffer (Biosource kit). A 100 μl aliquot of biotinylated anti-TNFalpha (Biosource kit) was added and the samples incubated for 1 hour at room temperature. The samples were washed 4 times with 300 μl/well wash buffer. A 100 μl aliquot of Streptavidin-HRP solution (BioSource kit) was added and the samples incubated for 30 minutes at room temperature. The samples were washed 4 times with 300 μl/well wash buffer. A 100 μl aliquot of Chromagen (Biosource kit) was added and the samples incubated in the dark for 30 minutes. A 100 μl aliquot of stop solution (2N H2SO4) was added to each sample and samples were read at 450 nm on a WallacVictor for 0.1 sec/well.

Test [3] concerns the target T2, PDE4B2: full-length human PDE4B2 isozyme (Homo sapiens, UniProt Q07343).
T2 construct: made in house; host or cells: baculovirus infected insect cells (pFastBacHT)
As to the kind of experiment: PDE4 IC50 determination by Scintillation Proximity Assay (SPA), full-length PDE4B2. The class given is biochemical. As to conditions: cell lysate, [3H]cAMP SPA. The procedure: (§3) The enzyme was not purified from the cell lysates, so enzyme concentrations were not determined. Enzyme was stored in 50% glycerol at −20°.
as §1, §2

The target in test [4] is T3, PDE4D5: full-length human PDE4D5 isozyme (Homo sapiens, UniProt Q08499).
T3 construct: made in house; host or cells: baculovirus infected insect cells (pFastBacHT)
T3 sequence (Q08499 with tags, fused parts or gaps isoform Q08499-6): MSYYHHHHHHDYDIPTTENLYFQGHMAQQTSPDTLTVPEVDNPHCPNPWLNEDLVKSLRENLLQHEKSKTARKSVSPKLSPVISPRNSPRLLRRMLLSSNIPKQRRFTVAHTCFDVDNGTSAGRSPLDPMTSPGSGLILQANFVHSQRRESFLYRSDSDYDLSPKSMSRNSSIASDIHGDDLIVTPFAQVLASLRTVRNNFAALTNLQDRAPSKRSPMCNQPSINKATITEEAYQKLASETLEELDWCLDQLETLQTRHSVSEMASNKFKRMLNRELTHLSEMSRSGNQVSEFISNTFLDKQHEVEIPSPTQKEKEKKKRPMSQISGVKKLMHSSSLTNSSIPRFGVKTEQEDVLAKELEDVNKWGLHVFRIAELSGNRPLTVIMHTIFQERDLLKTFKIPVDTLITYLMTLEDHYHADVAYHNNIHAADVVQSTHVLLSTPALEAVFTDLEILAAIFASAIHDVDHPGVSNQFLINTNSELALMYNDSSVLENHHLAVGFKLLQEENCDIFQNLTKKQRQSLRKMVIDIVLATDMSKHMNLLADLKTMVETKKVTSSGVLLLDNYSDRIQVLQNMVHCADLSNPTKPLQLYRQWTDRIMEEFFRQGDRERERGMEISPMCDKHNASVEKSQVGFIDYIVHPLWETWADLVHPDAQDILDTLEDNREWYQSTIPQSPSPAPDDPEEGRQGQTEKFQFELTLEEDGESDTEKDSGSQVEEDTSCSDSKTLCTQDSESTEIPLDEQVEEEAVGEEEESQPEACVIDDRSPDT
As to the kind of experiment: PDE4 IC50 determination by Scintillation Proximity Assay (SPA), full-length PDE4D5. The class given is biochemical. As to conditions: cell lysate, [3H]cAMP SPA. The procedure: as §3, §1, §2
On the technique in general: Scintillation proximity formats need no separation of bound from free tracer.

The structures appear in SMILES notation. pIC50: −log10 of the molar value.

T2 sequence (Q07343 with tags, fused parts or gaps isoform Q07343-2): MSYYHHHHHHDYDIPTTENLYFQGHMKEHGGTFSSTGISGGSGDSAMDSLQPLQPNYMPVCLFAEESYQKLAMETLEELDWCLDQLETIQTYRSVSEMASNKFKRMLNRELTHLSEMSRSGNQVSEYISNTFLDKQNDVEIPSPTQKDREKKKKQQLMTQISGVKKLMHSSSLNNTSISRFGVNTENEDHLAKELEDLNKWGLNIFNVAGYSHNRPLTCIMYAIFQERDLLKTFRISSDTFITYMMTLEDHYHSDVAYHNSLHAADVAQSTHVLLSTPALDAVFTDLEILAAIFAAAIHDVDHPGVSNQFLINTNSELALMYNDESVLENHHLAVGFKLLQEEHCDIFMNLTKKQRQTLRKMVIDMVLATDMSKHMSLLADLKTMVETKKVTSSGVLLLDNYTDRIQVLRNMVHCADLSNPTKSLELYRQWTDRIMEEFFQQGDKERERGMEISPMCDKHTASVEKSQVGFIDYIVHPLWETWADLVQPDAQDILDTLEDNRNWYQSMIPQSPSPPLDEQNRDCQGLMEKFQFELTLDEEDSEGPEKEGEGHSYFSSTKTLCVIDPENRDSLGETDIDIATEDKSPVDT
T1 sequence (Q07343 324-700): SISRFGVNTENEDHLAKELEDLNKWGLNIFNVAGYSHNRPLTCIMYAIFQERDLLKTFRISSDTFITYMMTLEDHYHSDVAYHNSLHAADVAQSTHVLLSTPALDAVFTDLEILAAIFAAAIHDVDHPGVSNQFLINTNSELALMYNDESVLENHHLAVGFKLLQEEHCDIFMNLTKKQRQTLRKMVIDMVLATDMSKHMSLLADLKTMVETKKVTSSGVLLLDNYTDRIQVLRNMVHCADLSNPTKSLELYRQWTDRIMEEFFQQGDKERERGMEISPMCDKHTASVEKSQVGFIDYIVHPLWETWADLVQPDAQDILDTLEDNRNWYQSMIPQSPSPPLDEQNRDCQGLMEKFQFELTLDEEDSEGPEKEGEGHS

Turning to `COc1ccc(-c2cn(S(=O)(=O)Cc3ccccc3)c3ncccc23)cc1OC` [Compound 8, 3-(3,4-dimethoxy-phenyl)-1-phenylmethanesulfonyl-1H-pyrrolo[2,3-b]pyridine], the negative logarithm of the IC50 (pIC50) is over 5.00 in test [1], at least 5.00 in test [2], over 5.00 in test [3] and over 5.00 in test [4].

Turning to `COc1ccc(-c2cn(S(=O)(=O)Cc3cccc(Cl)c3)c3ncccc23)cc1OC` [Compound 9, 1-(3-chloro-phenylmethanesulfonyl)-3-(3,4-dimethoxy-phenyl)-1H-pyrrolo[2,3-b]pyridine], the pIC50 was over 5.00 in test [1], at least 5.00 in test [2], over 5.00 in test [3] and over 5.00 in test [4].

As for `COc1ccc(-c2cn(S(=O)(=O)c3ccc4ccccc4c3)c3ncccc23)cc1OC` [Compound 11, 3-(3,4-Dimethoxy-phenyl)-1-(naphthalene-2-sulfonyl)-1H-pyrrolo[2,3-b]pyridine], the negative-log IC50 (pIC50) in test [1] was over 5.00; in test [2] it was at least 5.00; in test [3] it was over 5.00; in test [4], over 5.00.

Take `COc1ccc(-c2cn(S(=O)(=O)c3ccc(C)c4ccccc34)c3ncccc23)cc1OC` [Compound 12, 3-(3,4-Dimethoxy-phenyl)-1-(4-methyl-naphthalene-1-sulfonyl)-1H-pyrrolo[2,3-b]pyridine]: the pIC50 in test [1] is over 5.00; in test [2], under 5.00; in test [3], over 5.00; in test [4] it was over 5.00.

With `COc1ccc(-c2cn(S(=O)(=O)c3cccc4cnccc34)c3ncccc23)cc1OC` [Compound 14, 5-[3-(3,4-Dimethoxy-phenyl)-pyrrolo[2,3-b]pyridine-1-sulfonyl]-isoquinoline], the negative-log IC50 (pIC50) in test [1] is over 5.00; in test [2] it was at least 5.00; in test [3] it was over 5.00; in test [4], over 5.00.

Turning to `COc1ccc(-c2cn(S(=O)(=O)c3cccc4ccccc34)c3ncccc23)cc1OC` [Compound 16, 3-(3,4-Dimethoxy-phenyl)-1-(naphthalene-1-sulfonyl)-1H-pyrrolo[2,3-b]pyridine], the pIC50 in test [1] is over 5.00; in test [2] it was at least 5.00; in test [3], over 5.00; in test [4], over 5.00.

Take `COc1ccc(-c2cn(S(=O)(=O)c3cccc4cccnc34)c3ccccc23)cc1OC` [Compound 21, 8-[3-(3,4-dimethoxy-phenyl)-indole-1-sulfonyl]-quinoline]: the pIC50 in test [1] is over 5.00; in test [2], at least 5.00; in test [3], over 5.00; in test [4], over 5.00.

`COc1ccc(-c2cn(C(=O)Nc3ccc(Cl)cc3)c3ncccc23)cc1OC` [Compound 26, 3-(3,4-dimethoxy-phenyl)-pyrrolo[2,3-b]pyridine-1-carboxylic acid (4-chloro-phenyl)-amide]: the pIC50 is over 5.00 in test [1], at least 5.00 in test [2], over 5.00 in test [3] and over 5.00 in test [4].

With `COc1ccc(NC(=O)n2cc(-c3ccc(OC)c(OC)c3)c3cccnc32)cc1Cl` [Compound 27, 3-(3,4-Dimethoxy-phenyl)-pyrrolo[2,3-b]pyridine-1-carboxylic acid (3-chloro-4-methoxy-phenyl)-amide], the pIC50 in test [1] is over 5.00; in test [2] it was at least 5.00; in test [3] it was over 5.00; in test [4], over 5.00.

Consider `COc1cc(NC(=O)n2cc(-c3ccc(OC)c(OC)c3)c3cccnc32)cc(OC)c1` [Compound 29, 3-(3,4-Dimethoxy-phenyl)-pyrrolo[2,3-b]pyridine-1-carboxylic acid (3,5-dimethoxy-phenyl)-amide], for which the pIC50 in test [1] was over 5.00; in test [2], at least 5.00; in test [3], over 5.00; in test [4], over 5.00.

On to `COc1ccc(-c2cn(C(=O)Nc3cccc(C(C)=O)c3)c3ncccc23)cc1OC` [Compound 34, 3-(3,4-Dimethoxy-phenyl)-pyrrolo[2,3-b]pyridine-1-carboxylic acid (3-acetyl-phenyl)-amide], for which the pIC50 was over 5.00 in test [1], at least 5.00 in test [2], over 5.00 in test [3] and over 5.00 in test [4].

Consider `COc1ccc(-c2cn(C(=O)Nc3ccc(Cl)c(Cl)c3)c3ncccc23)cc1OC` [Compound 37, 3-(3,4-Dimethoxy-phenyl)-pyrrolo[2,3-b]pyridine-1-carboxylic acid (3,4-dichloro-phenyl)-amide], for which the negative-log IC50 (pIC50) was over 5.00 in test [1], at least 5.00 in test [2], over 5.00 in test [3] and over 5.00 in test [4].

On to `COc1ccc(-c2cnc3c(ccn3S(=O)(=O)c3ccccc3)c2)cc1OC` [Compound 132, 1-Benzenesulfonyl-5-(3,4-dimethoxy-phenyl)-1H-pyrrolo[2,3-b]pyridine], for which the pIC50 in test [2] is at least 5.00; in test [3], over 5.00; in test [4], over 5.00.

Consider `COc1ccc(-c2cnc3[nH]cc(C#Cc4ccccc4)c3c2)cc1OC` [Compound 138, 5-(3,4-Dimethoxy-phenyl)-3-phenylethynyl-1H-pyrrolo[2,3-b]pyridine], for which the pIC50 in test [2] is at least 5.00; in test [3], over 5.00; in test [4], over 5.00.

Consider `COC(=O)c1cccc(C#Cc2c[nH]c3ncc(-c4ccc(OC)c(OC)c4)cc23)c1` [Compound 139, 3-[5-(3,4-Dimethoxy-phenyl)-1H-pyrrolo[2,3-b]pyridin-3-ylethynyl]-benzoic acid methyl ester], for which the negative-log IC50 (pIC50) in test [2] is under 5.00; in test [3], over 5.00; in test [4], over 5.00.

Take `COc1ccc(-c2cnc3[nH]cc(C#Cc4cccc(C(=O)O)c4)c3c2)cc1OC` [Compound 140, 3-[5-(3,4-Dimethoxy-phenyl)-1H-pyrrolo[2,3-b]pyridin-3-ylethynyl]-benzoic acid]: the figures for the pIC50 in test [2], in test [3] and in test [4] were under 5.00, over 5.00 and over 5.00, respectively.

A word on the pIC50: it is the IC50 on a negative log10 scale, so that one unit is a factor of ten.
